Test system: Human pancreatic cancer Capan-2 cells
Assay: Pharmacodynamics in Capan-2 tumor mouse model
Type: in vivo, Balb/c nude mice
Conditions: Capan-2 model, TIW × 9 doses
Description: In this experiment, Capan-2 tumor mouse model was used to study the anti-tumor activity of anti-human LIFR antibody. The pharmacodynamics of PR300516 antibody administered alone (5 mg/kg and 15 mg/kg) in Capan-2 mouse model were studied. Human pancreatic cancer Capan-2 cells (ATCC cell bank) were subcutaneously inoculated into female Balb/c nude mice (charles river). The treatment method of the antibody group is: on the 5th day, the 9th day, the 12th day, the 16th day, the 19th day and the 23rd day after the tumor cell inoculation, the mice of each group are injected with the corresponding antibodies in the intraperitoneal cavity. The treatment method of the small molecule inhibitor group is: EC359 small molecule inhibitors were administered orally to mice on days 5, 7, 9, 12, 14, 16, 19, 21 and 23 after tumor cell inoculation. The tumor volume was measured on the 5th, 9th, 12th, 16th, 19th and 23rd days after tumor cell inoculation, and then the mice were euthanized.

Q: How did the “TGI (%)” value (5 mg/kg oral) turn out when `C#CC(F)(F)[C@]1(O)CC[C@H]2[C@@H]3CCC4=CC(=O)CCC4=C3[C@@H](c3ccc(-c4c(C)cc(C)cc4C)cc3)C[C@@]21C` [EC359, reference compound] was run?
A: Its value is 40.99%.

Q: What about the “TGI (%)” value (15 mg/kg oral) of the same molecule?
A: Its value is 47.85%.

Source: patent US20250136702A1, “HUMAN LIFR ANTIGEN BINDING PROTEIN, PREPARATION METHOD THEREFOR, AND APPLICATION THEREOF” (NONA BIOSCIENCES (SUZHOU) CO., LTD., priority 2020, published 2025)
